Measurements published in PubChem BioAssay (NCI).
Several values for one entry are separate records, joined by “and”; a condition that tells them apart may be missing. Identical values can stand only once.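 A five-concentration, 48-hour dose response in 96-well plates underlies each endpoint, interpolated linearly between surrounding concentrations. GI50 = concentration required for 50% inhibition of growth. TGI: total growth inhibition.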

Experiments:
Test in all cases: NCI tumour cell line growth inhibition, 48 h
KM20L2 colon = tested on: KM20L2 colon
LXFL 529 NSCLC = tested on: LXFL 529 NSCLC
XF 498 CNS = tested on: XF 498 CNS
DMS 273 small cell lung = tested on: DMS 273 small cell lung
HOP-18 NSCLC = tested on: HOP-18 NSCLC
M19-MEL melanoma = tested on: M19-MEL melanoma
SNB-78 CNS = tested on: SNB-78 CNS
RXF-631 renal = tested on: RXF-631 renal
P388/ADR leukemia = tested on: P388/ADR leukemia
P388 leukemia = tested on: P388 leukemia
MDA-N = tested on: MDA-N
SN12K1 renal = tested on: SN12K1 renal

Row | Structure (SMILES) | TGI (KM20L2 colon) | TGI (LXFL 529 NSCLC) | TGI (XF 498 CNS) | TGI (DMS 273 small cell lung) | TGI (HOP-18 NSCLC) | TGI (M19-MEL melanoma) | TGI (SNB-78 CNS) | TGI (RXF-631 renal) | further results
1 | Cc1ccc(NC(=O)CCC(CC(=O)C(C)(C)C)=NNC(=O)C(=O)NN)cc1C | > 100 µM | > 100 µM | > 100 µM | > 100 µM | > 100 µM | > 100 µM |  |  | 
2 | Cc1[nH]c2ccccc2c1C1Cc2ccccc2N1C(=O)/C=C/C=C/c1ccccc1 (configuration not stated) | > 100 µM | > 100 µM |  | > 100 µM |  | > 100 µM | > 100 µM |  | 
3 | COC(=O)/C=C1/CCC2[C@@H](C(=O)CC3[C@]2(C)CCC[C@@]3(C)C(=O)OC)C1C (some centres not stated) | 29.5 µM | 20.8 µM | 30.3 µM | 29.8 µM | 27.5 µM | 31.2 µM | 40.5 µM | 30.9 µM | 
4 | CC(=O)OC(/C=C1/C=CC(=O)O1)COC(=O)c1ccccc1 (configuration not stated) | > 31.2 µM | > 31.2 µM | > 31.2 µM | > 31.2 µM | > 31.2 µM | > 31.2 µM | > 31.2 µM |  | 
5 | C/C(=C\C(C)COCc1ccccc1)[C@H](COCc1ccccc1)OCc1ccccc1 (some centres not stated) | > 100 µM | > 100 µM | > 100 µM | > 100 µM |  | > 100 µM | > 100 µM | > 100 µM | 
6 | CCOC(=O)/C(=C\c1ccc(O)c(OC)c1)C(=O)c1ccccc1 | > 56.7 µM | > 39.5 µM | > 52 µM |  | > 100 µM | 79.6 µM | 8.36 µM |  | 
7 | COC(=O)NC1C(C)OC(OC2C/C=C(/C)C3C=CC4C(OC5CC(OC6CC(O)C(OC7CC(O)C(OC)C(C)O7)C(C)O6)C(O)C(C)O5)C(C)CC(C)C4C3(C)/C(O)=C3\C(=O)OC4(CC(C)C(CO)=CC4/C=C\2C)C3=O)CC1(C)[N+](=O)[O-] (configuration not stated) | 34 µM | 9.19 µM | 27 µM | 28.9 µM | 31.4 µM | 13.1 µM | 29.8 µM | 41.7 µM | TGI (P388/ADR leukemia): 98.1 µM; TGI (P388 leukemia): 17.4 µM; TGI (MDA-N): 19.5 µM; TGI (SN12K1 renal): 22.6 µM
8 | C=C1C(=O)O[C@@H]2C[C@@]3(C)CCC[C@H](C)C3=C[C@H]12 |  |  |  |  |  |  |  |  | TGI (MDA-N): 16.6 µM
9 | CC1=NN(c2ccccc2)C(=O)C1N=Nc1ccc([As](=O)(O)O)c(O)c1 (configuration not stated) |  |  |  |  |  |  |  |  | TGI (MDA-N): > 100 µM
10 | COc1cc(/C=C2/C(=O)N(C(=O)OC(C)C)C(Cc3cc(OC)c(OC)c(C)c3OC)C(=O)N2Cc2ccccc2)c(OC)c(C)c1OC (configuration not stated) | > 100 µM | > 100 µM |  | > 100 µM | > 100 µM | > 100 µM |  |  | 
11 | Cc1cc(O)cc2oc(=O)c3c(O)cc(O)cc3c12 | > 100 µM | > 100 µM | 59.3 µM | 58.2 µM | > 100 µM | > 100 µM | > 100 µM |  | 
12 | CCCCCCCCCCCCCC(=O)O[C@H]1CC[C@H](NC(=O)[C@H](OC)[C@H](O)[C@@H](O)[C@H](O)/C=C/C(C)C)C(=O)NC1 | 8.34 µM | 7.26 µM | 0.305 µM | 0.0303 µM | > 51.2 µM | 8.23 µM |  |  | GI50 (KM20L2 colon): 0.0453 µM; GI50 (LXFL 529 NSCLC): 0.00512 µM; GI50 (DMS 273 small cell lung): < 0.001 µM; GI50 (MDA-N): 0.0165 µM; TGI (MDA-N): 44.7 µM and 12.1 µM; GI50 (HOP-18 NSCLC): > 51.2 µM; GI50 (M19-MEL melanoma): 0.0245 µM
13 | Cc1ccc(NC(=O)C(=O)C2C(=O)N(c3ccccc3)N=C2N)cc1C (configuration not stated) | > 100 µM | > 100 µM | > 100 µM | > 100 µM | > 100 µM | > 100 µM | > 100 µM | > 100 µM | 
14 | O=c1/c(=C/c2cccc([N+](=O)[O-])c2)sc2nc3ccccc3n12 |  | > 100 µM | > 100 µM | > 100 µM |  | > 100 µM | > 100 µM |  | 
15 | CCOC12OC3=C(CC1CC1=C(CCC1=O)O2)C(=O)CC3 (configuration not stated) | > 100 µM | > 100 µM |  | > 100 µM | > 100 µM | > 100 µM | > 100 µM | > 100 µM | 
16 | COc1cc(O)c2c(O)c3c(c4c2c1[C@]1(C4)C(C)=CCCC1(C)C)[C@H](O)[C@@]1(O)CC(=O)C(C(N)=O)=C(O)[C@@]1(O)C3=O |  |  |  |  |  |  |  |  | TGI (MDA-N): 1.72 µM
17 | CC1CC2(C)ON=C(c3ccccc3)N2c2ccccc2S1 (configuration not stated) |  |  |  |  |  |  |  |  | GI50 (MDA-N): 34.2 µM
18 | CC1=NN(c2ccccc2)C(=O)C1=C1SCCS1 | > 100 µM | > 100 µM | > 100 µM | > 100 µM | > 100 µM | > 100 µM | > 100 µM | > 100 µM | 
19 | COc1ccc2c(=O)c(C)c(-c3ccccc3)oc2c1CN(C)C | > 100 µM | > 100 µM | > 100 µM | > 100 µM | > 100 µM | > 100 µM | > 100 µM |  | GI50 (M19-MEL melanoma): > 100 µM and 42.4 µM
20 | CC1(C)COC(C23C4C5C2C2C3C4C52I)=N1 (configuration not stated) | > 100 µM | > 100 µM | > 100 µM |  | > 100 µM | > 100 µM | > 100 µM |  | 

Row | Structure (SMILES) | TGI (KM20L2 colon) | TGI (LXFL 529 NSCLC) | TGI (XF 498 CNS) | TGI (DMS 273 small cell lung) | TGI (HOP-18 NSCLC) | TGI (M19-MEL melanoma) | TGI (SNB-78 CNS) | TGI (RXF-631 renal) | further results
21 | CCOC(=O)C12CCCC1(O)N(NC(=O)c1ccccc1)C(C)=C2C(=O)OC (configuration not stated) | > 100 µM | > 100 µM |  | > 100 µM | > 100 µM | > 100 µM | > 100 µM |  | 
22 | COc1ccc(CCN2C(=O)C=CC2=O)cc1OC |  |  |  |  |  |  |  |  | TGI (MDA-N): 33.5 µM
23 | CCOC(C)C(/C=N/NC(N)=S)=NNC(N)=S (configuration not stated) |  | > 100 µM |  |  |  | > 100 µM | > 100 µM |  | 
24 | Cc1cc(NS(=O)(=O)c2ccc(N=Nc3cc(N=Nc4ccc(S(=O)(=O)Nc5cc(C)nc(C)n5)cc4)c4c(NC(=O)C(Cl)Cl)cccc4c3OC(=O)C(Cl)Cl)cc2)nc(C)n1 (tested in a mixture with another compound) | 60.8 µM |  |  | 83.9 µM | 34.1 µM | > 100 µM | > 100 µM |  | 
25 | [O-]c1c2c(nn1-c1ccccc1)c1ccccc1c[n+]2Cc1ccccc1 | > 100 µM | > 100 µM | > 100 µM | > 100 µM | > 100 µM | > 100 µM | > 100 µM | > 100 µM | 
26 | COC(=O)C1=C(O)c2cc(OC)c(OC)c(OC)c2[C@H](c2cc(OC)c(OC)c(OC)c2)C1C(=O)OC (some centres not stated) | 37.5 µM | > 100 µM | > 100 µM | 51.4 µM |  |  | > 100 µM | 97.2 µM | 
27 | COC(=O)C1=C2CCC(=O)[C@@]2(C)C(OC(C)=O)C=CC1 (some centres not stated) | > 100 µM | > 100 µM | 92.9 µM | > 100 µM |  | > 100 µM | > 100 µM | 54 µM | 
28 | CCC[CH2][Sn]1([CH2]CCC)[O]C(=O)c2cc(I)cc(I)c2[O]1 | 3.39 µM | 1.33 µM |  | 2.82 µM | 3.03 µM | 2.19 µM | 2.37 µM |  | GI50 (KM20L2 colon): 1.84 µM; GI50 (LXFL 529 NSCLC): 0.247 µM; GI50 (SNB-78 CNS): 0.536 µM; GI50 (DMS 273 small cell lung): 1.28 µM; GI50 (HOP-18 NSCLC): 1.62 µM; GI50 (M19-MEL melanoma): 1 µM
29 | CCOC(=O)/C(O)=C(/c1n[nH]c(=O)c2ccccc12)[N+](=O)[O-] | > 100 µM | > 100 µM |  | > 100 µM | > 100 µM | > 100 µM | > 100 µM |  | 
30 | Nc1nc(N)c(N=O)c(Nc2ccc(O)cc2)n1 |  |  |  |  |  |  |  |  | TGI (MDA-N): > 100 µM
31 | O=c1cccccc1NCCOCCNc1cccccc1=O | > 100 µM | > 100 µM |  | > 100 µM | > 100 µM | > 100 µM | > 100 µM |  | 
32 | CCC(C)(C)C(=O)O[C@H]1C[C@@H](C)C=C2C=C[C@H](C)[C@H](CC[C@@H]3C[C@@H](O)CC(=O)O3)[C@H]21 | > 30 µM | > 30 µM | > 30 µM | > 30 µM | > 30 µM | > 30 µM | > 30 µM | > 30 µM | 
33 | CCCN(CCCCC(NC(C)=O)C(=O)NCc1ccccc1)C(=O)N(C)N=O (configuration not stated) | > 100 µM | > 100 µM | > 100 µM | > 100 µM |  | > 100 µM | > 100 µM |  | 
34 | COc1cc(C2=NN(C)C(c3ccc([N+](=O)[O-])o3)C2)cc(OC)c1OC (configuration not stated) | > 100 µM | > 100 µM |  | > 100 µM | > 100 µM | > 100 µM | > 100 µM | > 100 µM | 
35 | O=S(=O)(/C=C/c1ccc(Cl)cc1Cl)Cc1ccccc1CS(=O)(=O)/C=C/c1ccc(Cl)cc1Cl | > 100 µM | > 100 µM | > 100 µM | > 100 µM |  | > 100 µM | > 100 µM |  | 
36 | COc1ccc(C(=O)C(c2ccc(OC)cc2)C2(O)C(=O)Nc3ccccc32)cc1 (configuration not stated) | > 100 µM | > 100 µM | > 100 µM | > 100 µM |  | > 100 µM | > 100 µM | > 100 µM | 
37 | CN(C)CCNC(=O)c1cc2ccccc2c2nc3ccccc3nc12 | 2.93 µM | > 22.3 µM |  | > 100 µM | > 22.9 µM | 2.67 µM | 16.4 µM |  | 
38 | O=S(=O)(O)O.[NH-]C1CCCCC1[NH-].[Pt+2] (configuration not stated) | > 100 µM | > 100 µM |  |  |  | > 100 µM | > 100 µM |  | GI50 (KM20L2 colon): 35.8 µM; GI50 (LXFL 529 NSCLC): > 100 µM; GI50 (SNB-78 CNS): > 100 µM; GI50 (M19-MEL melanoma): > 100 µM
39 | C/C(CC(=O)Nc1ccc(Cl)c(Cl)c1)=N/NC(=O)C[n+]1ccccc1 | > 100 µM | > 100 µM | > 100 µM | > 100 µM | > 100 µM | > 100 µM | > 100 µM |  | 
40 | COc1ccc(C(=O)OCC2OC(n3cnc4c(=S)nc[nH]c43)C(OC(=O)c3ccc(OC)cc3)C2OC(=O)c2ccc(OC)cc2)cc1 (configuration not stated) | > 100 µM | > 100 µM |  | > 100 µM |  | > 100 µM |  |  | 
